Measured values as given in ChEMBL document CHEMBL1201862, “PubChem BioAssay data set” (2004).
Activity calls are given as the source filed them.

What was measured:
[1] = Luminescence Cell-Based Dose Confirmation HTS to Identify Inhibitors of Polyadenylation.; format: functional
[2] = target: T1, Alkaline phosphatase, tissue-nonspecific isozyme (Homo sapiens, UniProt P05186)
T1 sequence (P05186 whole entry): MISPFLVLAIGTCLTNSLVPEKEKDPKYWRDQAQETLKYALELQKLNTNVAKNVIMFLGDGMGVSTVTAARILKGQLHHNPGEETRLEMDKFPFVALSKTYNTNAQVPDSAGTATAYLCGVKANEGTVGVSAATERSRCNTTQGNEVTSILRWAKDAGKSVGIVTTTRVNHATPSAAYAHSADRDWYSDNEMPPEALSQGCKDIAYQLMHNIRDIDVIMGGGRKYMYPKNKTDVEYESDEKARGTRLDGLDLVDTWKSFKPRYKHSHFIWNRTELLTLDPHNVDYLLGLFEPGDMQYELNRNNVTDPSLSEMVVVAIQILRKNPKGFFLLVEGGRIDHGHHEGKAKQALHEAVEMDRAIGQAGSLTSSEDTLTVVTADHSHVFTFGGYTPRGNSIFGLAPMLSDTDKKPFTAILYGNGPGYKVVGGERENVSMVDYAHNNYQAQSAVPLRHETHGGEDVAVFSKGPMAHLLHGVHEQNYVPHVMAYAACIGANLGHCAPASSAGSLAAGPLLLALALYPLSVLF

[3] = target: T2, Replicative DNA helicase DnaB (Mycobacterium tuberculosis, UniProt P9WMR3); test: DnaB intein splicing inhibitors, dose response, biochemical, cell-free fluorescence (AID 449749); format: functional
T2 sequence (P9WMR3 whole entry): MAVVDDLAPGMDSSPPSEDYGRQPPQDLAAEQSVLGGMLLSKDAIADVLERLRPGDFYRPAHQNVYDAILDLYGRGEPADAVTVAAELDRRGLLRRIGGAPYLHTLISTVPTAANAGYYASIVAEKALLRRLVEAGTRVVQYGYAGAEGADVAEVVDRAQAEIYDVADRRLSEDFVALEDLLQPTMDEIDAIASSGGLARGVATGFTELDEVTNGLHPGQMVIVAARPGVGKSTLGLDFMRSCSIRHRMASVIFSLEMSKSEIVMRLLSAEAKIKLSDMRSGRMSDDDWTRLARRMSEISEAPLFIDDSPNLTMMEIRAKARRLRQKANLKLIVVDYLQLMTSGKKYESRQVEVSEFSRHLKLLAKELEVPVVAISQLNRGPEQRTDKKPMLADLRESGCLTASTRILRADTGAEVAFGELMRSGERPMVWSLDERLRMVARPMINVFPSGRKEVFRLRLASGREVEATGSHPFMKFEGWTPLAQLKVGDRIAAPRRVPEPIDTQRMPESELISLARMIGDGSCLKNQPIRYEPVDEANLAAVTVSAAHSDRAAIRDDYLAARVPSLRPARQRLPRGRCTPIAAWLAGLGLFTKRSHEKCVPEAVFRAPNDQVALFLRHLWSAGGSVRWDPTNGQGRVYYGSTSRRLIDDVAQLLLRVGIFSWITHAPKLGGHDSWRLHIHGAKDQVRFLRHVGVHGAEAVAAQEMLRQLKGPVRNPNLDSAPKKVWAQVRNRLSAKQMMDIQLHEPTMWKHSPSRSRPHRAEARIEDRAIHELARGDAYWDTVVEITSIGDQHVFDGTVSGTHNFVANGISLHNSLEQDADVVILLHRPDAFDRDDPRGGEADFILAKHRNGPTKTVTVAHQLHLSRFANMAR

Protein RecA = target: T3, Protein RecA (Mycobacterium tuberculosis, UniProt P9WHJ3); test: Fluorescence Cell-Free Homogeneous Dose Retest to Identify Inhibitors of RecA-Intein Splicing Activity. [Related pubchem assays (depositor defined):AID2097, AID2223, AID489010, AID492950]; format: functional
T3 sequence (P9WHJ3 whole entry): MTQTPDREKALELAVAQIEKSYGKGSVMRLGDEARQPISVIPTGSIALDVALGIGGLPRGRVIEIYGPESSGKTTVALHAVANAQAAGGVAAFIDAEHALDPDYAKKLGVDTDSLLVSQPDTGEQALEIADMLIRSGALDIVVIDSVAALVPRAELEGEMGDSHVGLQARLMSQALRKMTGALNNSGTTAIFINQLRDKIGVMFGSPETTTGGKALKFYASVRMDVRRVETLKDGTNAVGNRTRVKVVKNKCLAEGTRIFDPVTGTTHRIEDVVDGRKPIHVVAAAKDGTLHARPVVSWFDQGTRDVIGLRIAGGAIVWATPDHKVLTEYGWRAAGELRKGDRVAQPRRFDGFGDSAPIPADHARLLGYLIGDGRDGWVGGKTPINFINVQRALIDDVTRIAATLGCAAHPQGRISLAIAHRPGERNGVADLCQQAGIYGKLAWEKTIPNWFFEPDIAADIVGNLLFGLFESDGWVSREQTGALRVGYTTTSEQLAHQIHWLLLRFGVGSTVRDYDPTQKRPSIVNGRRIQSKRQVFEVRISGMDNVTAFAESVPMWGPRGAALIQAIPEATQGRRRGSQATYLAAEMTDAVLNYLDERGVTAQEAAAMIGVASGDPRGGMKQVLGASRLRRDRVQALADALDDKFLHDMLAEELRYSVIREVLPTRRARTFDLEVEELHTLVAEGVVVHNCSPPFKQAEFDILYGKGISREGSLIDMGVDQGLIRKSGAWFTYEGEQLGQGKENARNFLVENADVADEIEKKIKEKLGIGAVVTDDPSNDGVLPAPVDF

[4] = M. tuberculosis H37Rv growth inhibitors, H37Rv strain (AID 1626); format: functional
[5] = luciferase reporter signal suppression in cells – H4 neuroglioma cells, luminescence, dose response (AID 1990); format: functional, cell-based
BJ [6] = test: BJ-TERT fibroblast viability loss – cell-based, RAS-independent, luminescence, dose response (AID 1933); format: functional; conditions: Homo sapiens
[7] = Luminescence Cell-Based Dose Response HTS to Identify Inhibitors of 5'UTR Stem-Loop Driven Prion Protein mRNA Translation in H4 Neuroglioblastoma Cells. [Related pubchem assays: 1827 (Project Summary), 1813 (Primary HTS)]; format: functional
[8] = alpha-synuclein stem-loop luciferase translation blockers – H4 neuroglioma cells, luminescence, confirmation (AID 1988); format: functional, cell-based
BJ [9] = test: cells; format: functional, cell-based; conditions: Homo sapiens
[10] = Luminescence-based dose response cell-based high throughput screening assay for cytotoxic compounds using the IEC-6 intestinal epithelial cell line. [Related pubchem assays: 1858 (Summary AID.), 1825 (Counterscreen.), 1907 (Confirmation screen.)]; format: functional
BJ [11] = test: BJ-TERT-LT-ST fibroblast viability loss – cell-based, RAS-independent, luminescence, dose response (AID 1935); format: functional; conditions: Homo sapiens;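 further: BJ fibroblasts immortalized with TERT plus LT and ST oncogenes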
[12] = DRD fibroblast viability loss – cell-based, non-viral oncogenic, luminescence, dose response (AID 1934); format: functional; conditions: Homo sapiens
[13] = HEK-293T viability loss after treatment – luminescence, T-cell screen hits, cytotoxicity control for TCR NF-kB inhibitor project, dose response (AID 489026); format: functional, cell-based;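 further: cells exposed to compound about 14 hours before the viability readout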
BJ [14] = test: growth inhibition of engineered Ras-driven BJ cells – cell-based, alamar blue fluorescence, cherrypicked samples, dose response (AID 2631); format: functional; conditions: Homo sapiens;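 further: confirmatory dose-response assay in RAS-dependent BJ fibroblasts engineered with TERT, LT and ST, with cytotoxicity read by fluorescence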
Paired box protein Pax-8 = Paired box protein Pax-8 (Homo sapiens, UniProt Q06710); test: PAX8 transcriptional activity inhibition in RMG-I – RMG-I cells, luciferase, cherry-pick, dose response (AID 687027); format: functional, cell-based;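 further: luciferase reporter driven by Pax8 target thyroperoxidase promoter measured by SteadyGlo luminescence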
Paired box protein Pax-8, sequence (Q06710 whole entry): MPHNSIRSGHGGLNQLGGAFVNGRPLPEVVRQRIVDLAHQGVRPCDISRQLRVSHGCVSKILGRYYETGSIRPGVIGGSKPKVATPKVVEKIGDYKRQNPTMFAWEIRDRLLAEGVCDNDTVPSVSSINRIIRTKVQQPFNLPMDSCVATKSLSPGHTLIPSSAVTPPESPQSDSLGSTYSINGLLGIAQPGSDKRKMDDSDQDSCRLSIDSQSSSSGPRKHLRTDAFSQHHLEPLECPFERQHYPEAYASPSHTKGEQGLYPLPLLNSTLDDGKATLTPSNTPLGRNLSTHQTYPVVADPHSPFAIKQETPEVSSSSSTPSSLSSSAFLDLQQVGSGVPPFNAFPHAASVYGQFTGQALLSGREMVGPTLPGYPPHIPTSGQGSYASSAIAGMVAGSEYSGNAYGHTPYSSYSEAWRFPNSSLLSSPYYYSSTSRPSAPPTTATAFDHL

[15] = target: Peroxisome proliferator-activated receptor gamma/Nuclear receptor coactivator 2 (Homo sapiens, UniProt P37231); format: functional;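 further: agonist potency for raising coactivator recruitment to the receptor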
Peroxisome proliferator-activated receptor gamma/Nuclear receptor coactivator 2, sequence (P37231 whole entry): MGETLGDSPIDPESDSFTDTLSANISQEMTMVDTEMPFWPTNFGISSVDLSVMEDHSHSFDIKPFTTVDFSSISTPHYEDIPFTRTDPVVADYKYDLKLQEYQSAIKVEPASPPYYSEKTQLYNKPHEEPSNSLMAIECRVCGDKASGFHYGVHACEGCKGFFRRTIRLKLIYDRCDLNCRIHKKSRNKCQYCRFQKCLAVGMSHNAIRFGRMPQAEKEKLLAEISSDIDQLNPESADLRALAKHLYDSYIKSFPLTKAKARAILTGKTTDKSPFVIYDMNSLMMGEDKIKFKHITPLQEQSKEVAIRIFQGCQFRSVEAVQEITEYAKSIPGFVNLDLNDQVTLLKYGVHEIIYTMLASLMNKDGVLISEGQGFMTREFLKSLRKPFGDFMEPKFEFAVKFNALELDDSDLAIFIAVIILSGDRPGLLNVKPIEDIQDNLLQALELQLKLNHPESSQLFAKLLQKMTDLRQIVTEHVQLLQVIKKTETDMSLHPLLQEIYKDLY
Peroxisome proliferator-activated receptor gamma/Nuclear receptor coactivator 2, sequence (Q15596 whole entry, further chain): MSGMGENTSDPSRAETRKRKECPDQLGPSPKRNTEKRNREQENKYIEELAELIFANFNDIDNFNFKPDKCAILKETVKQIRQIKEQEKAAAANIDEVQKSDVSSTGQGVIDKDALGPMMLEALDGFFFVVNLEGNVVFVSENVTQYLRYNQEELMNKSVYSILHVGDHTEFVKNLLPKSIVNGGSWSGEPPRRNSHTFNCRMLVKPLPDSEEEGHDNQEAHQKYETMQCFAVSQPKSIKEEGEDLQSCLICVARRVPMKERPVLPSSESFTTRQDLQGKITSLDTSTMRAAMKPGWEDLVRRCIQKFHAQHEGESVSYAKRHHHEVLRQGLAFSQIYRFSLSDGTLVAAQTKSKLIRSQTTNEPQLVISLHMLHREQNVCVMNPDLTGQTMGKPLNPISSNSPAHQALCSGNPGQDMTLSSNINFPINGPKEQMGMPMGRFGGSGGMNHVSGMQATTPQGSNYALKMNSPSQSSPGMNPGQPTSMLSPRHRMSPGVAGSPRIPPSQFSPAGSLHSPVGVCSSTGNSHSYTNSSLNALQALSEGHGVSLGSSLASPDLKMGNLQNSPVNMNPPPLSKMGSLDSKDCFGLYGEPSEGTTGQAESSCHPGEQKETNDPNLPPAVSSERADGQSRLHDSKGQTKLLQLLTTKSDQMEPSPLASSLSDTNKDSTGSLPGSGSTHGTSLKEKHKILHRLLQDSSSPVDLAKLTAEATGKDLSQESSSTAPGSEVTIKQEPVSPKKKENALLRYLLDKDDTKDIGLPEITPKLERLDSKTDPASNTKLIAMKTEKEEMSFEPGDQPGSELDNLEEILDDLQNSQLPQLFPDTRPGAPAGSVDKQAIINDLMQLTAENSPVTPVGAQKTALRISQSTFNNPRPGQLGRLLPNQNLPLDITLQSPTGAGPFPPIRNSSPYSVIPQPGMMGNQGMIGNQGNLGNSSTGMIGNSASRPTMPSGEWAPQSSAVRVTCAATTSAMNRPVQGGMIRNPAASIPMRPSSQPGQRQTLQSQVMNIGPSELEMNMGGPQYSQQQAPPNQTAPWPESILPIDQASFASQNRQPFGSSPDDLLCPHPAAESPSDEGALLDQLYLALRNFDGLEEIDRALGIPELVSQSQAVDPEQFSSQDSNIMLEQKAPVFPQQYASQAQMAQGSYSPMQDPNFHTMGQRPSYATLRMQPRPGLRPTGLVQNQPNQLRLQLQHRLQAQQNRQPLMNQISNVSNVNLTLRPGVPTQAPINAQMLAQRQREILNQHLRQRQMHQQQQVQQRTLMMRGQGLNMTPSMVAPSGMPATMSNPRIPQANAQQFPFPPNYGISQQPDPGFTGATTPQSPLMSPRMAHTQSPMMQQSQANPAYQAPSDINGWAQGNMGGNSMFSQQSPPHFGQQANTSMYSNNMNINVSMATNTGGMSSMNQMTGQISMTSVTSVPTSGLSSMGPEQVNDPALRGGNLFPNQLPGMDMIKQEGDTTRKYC

[16] = target: Peroxisome proliferator-activated receptor gamma/Nuclear receptor coactivator 1 (Homo sapiens, UniProt P37231); format: functional;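 further: agonist potency as compounds enhance coactivator SRC-1 recruitment to PPARgamma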
[17] = target: Peroxisome proliferator-activated receptor gamma/Nuclear receptor coactivator 3 (Homo sapiens, UniProt P37231); format: functional;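 further: agonist potency for raising coactivator recruitment to the receptor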
HEK293 [18] = test: inhibition of NOD1-driven NF-kB reporter – cell-based, luminescence, uHTS, primary screen (AID 1578); format: functional; conditions: Homo sapiens
HEK293 [19] = test: cells; format: functional, cell-based; conditions: Homo sapiens
Galanin receptor type 2 = target: T4, Galanin receptor type 2 (Homo sapiens, UniProt O43603); test: Dose Response cell-based high-throughput screening assay to identify antagonists of galanin receptor 2 (GALR2). [Related pubchem assays: 828, 866 ]; format: functional
T4 sequence (O43603 whole entry): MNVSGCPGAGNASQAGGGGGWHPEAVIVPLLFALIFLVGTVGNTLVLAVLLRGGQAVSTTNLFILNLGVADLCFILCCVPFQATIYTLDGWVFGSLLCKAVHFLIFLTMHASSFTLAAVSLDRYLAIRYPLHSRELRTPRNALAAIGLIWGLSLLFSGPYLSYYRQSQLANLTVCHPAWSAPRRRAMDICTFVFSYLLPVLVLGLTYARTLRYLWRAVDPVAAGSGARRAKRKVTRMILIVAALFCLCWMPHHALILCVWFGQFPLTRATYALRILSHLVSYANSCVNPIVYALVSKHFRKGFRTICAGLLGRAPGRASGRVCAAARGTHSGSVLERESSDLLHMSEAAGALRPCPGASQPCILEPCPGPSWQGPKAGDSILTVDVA

HEK293 [20] = test: cells; format: functional, cell-based; conditions: Homo sapiens; remark: listed apart in the source
[21] = target: Nucleotide-binding oligomerization domain-containing protein 2 (Homo sapiens, UniProt Q9HC29); test: inhibition of NOD2-driven NF-kB reporter – cell-based, luminescence, uHTS, HEK293 (AID 1566); format: functional
Nucleotide-binding oligomerization domain-containing protein 2, sequence (Q9HC29 whole entry, the tested form may be a part): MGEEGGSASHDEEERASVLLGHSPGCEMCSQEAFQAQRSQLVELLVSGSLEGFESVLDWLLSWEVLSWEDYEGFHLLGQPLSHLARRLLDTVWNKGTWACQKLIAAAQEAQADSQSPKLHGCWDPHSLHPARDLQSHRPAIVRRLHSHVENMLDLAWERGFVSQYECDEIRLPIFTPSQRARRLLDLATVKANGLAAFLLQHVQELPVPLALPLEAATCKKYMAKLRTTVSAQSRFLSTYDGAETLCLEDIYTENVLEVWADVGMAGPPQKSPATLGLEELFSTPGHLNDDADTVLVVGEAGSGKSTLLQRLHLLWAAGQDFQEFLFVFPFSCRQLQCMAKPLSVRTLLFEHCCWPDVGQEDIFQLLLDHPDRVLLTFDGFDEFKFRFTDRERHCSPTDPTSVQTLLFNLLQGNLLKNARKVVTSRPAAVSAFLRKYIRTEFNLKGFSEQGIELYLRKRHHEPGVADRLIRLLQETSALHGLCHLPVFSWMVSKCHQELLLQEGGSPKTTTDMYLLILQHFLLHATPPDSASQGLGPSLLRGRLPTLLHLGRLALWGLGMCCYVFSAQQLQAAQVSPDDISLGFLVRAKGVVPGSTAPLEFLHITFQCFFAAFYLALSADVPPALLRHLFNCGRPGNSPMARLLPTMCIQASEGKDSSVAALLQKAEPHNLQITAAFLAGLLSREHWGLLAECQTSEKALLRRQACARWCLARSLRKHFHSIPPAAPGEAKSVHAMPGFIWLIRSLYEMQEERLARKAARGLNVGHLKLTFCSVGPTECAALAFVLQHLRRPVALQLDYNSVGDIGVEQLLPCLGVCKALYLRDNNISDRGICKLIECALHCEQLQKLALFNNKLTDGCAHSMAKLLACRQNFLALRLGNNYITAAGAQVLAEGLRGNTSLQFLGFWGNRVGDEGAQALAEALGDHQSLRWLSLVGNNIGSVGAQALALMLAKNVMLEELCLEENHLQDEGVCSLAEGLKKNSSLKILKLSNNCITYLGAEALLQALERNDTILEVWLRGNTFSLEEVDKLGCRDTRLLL

HEK293 [22] = test: NOD2 signaling inhibitors in MDP-stimulated cells, cell-based, uHTS, luminescence (AID 2001); format: functional; conditions: Homo sapiens
HEK293 [23] = test: cells; format: functional, cell-based; conditions: Homo sapiens; remark: listed apart in the source
INS1 = test: INS-1E survival protection against cytokine death – cell-based, luminescence, retest, dose response (AID 449756); format: functional; conditions: Rattus norvegicus;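 further: cell death triggered by IL-1 beta plus TNF-alpha plus IFN-gamma mixture; protective hits raise ATP signal compared with cytokine alone wells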
[24] = HIV-1 AD8 envelope cell-cell fusion blockers – cherry-pick, dose response (AID 652062); format: functional, cell-based;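 further: luciferase signal from cell-cell fusion driven by HIV-1 clade B AD8 Env; potency is for inhibitors of fusion seen as a drop in luminescence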
[25] = luciferase reporter signal reduction – luminescence, H4-C neuroglioblastoma cells, dose response (AID 2458); format: functional, cell-based;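 further: H4 neuroglioblastoma cells stably carrying a luciferase reporter gene fusion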
cells [26] = format: functional, cell-based
[27] = Trypanosoma cruzi growth suppression in host cells – NIH3T3 host cells, beta-gal luminescence, confirmation (AID 2044); format: functional, cell-based;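 further: intracellular parasites grown in NIH/3T3 mouse fibroblasts as host cells; luminescent beta-galactosidase reporter signal from transgenic T. cruzi replicating inside host cells; inhibitors lower the luminescence signal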
[28] = alpha-synuclein stem-loop translation blockers – luminescence, H4 neuroglioblastoma cells, dose confirmation, confirmation (AID 2454); format: functional, cell-based;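 further: H4 neuroglioblastoma cells carrying an alpha-synuclein 5'UTR luciferase reporter; potency for inhibition of the luciferase signal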
cells [29] = test: cells
[30] = NIH3T3 cell viability loss – ATP luminescence, mouse fibroblasts, counter-screen, dose response (AID 2010); format: functional, cell-based;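 further: cells exposed to compound for about 90 hours before reading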
[31] = Luminescence Cell-Based Dose Retest to Confirm Inhibitors of Cancer Stem Cells. [Related pubchem assays (depositor defined):AID2717, AID2721]; format: functional, Homo sapiens; conditions: Homo sapiens
[32] = reduction of Shn3 3'UTR-driven luciferase in osteoblasts – cell-based, Clone20 osteoblasts, firefly luciferase, cherry-picked, dose response (AID 624132); format: functional;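 further: firefly luciferase luminescence from reporter carrying the Shn3 3'UTR in osteoblasts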
[33] = loss of viability in HepG2 cells – cell-based, CellTiter-Glo, cherry-picked, cytotoxicity control for Shn3 inhibitor project, dose response (AID 624134); format: functional
[34] = non-specific 3'UTR reporter inhibition in Clone20-Shn3RL – cell-based, Renilla luciferase, cherry-picked, counter-screen for Shn3 inhibitor project, dose response (AID 624133); format: functional

Cn1cccc1Cc1nnc(SCC(=O)NCc2ccccc2Cl)n1-c1ccc(F)cc1
EC50 [1]: > 120 µM (not active)

CC/C(=C/c1sc2ccc(C)cc2[n+]1CCO)SC
EC50 [2]: > 100 µM (not active)
AC50 [3]: > 380 µM (inactive)
EC50 (Protein RecA): 14.2 µM (active)

Cc1ccc2[nH]c(SCC(=O)Nc3ccc4c(c3)CCC4)nc2c1
IC50 [4]: > 100 µM (active)

COc1ccc(CCNc2nnc(Sc3nnnn3-c3ccccc3)s2)cc1OC
EC50 [5]: 5.51 µM (active)
EC50 (BJ [6]): 2.95 µM (active)
EC50 [7]: 10.8 µM (active)
EC50 [8]: 5.09 µM (active)
EC50 (BJ [9]): 3.24 µM (active)
IC50 [10]: 2.49 µM (active)
EC50 (BJ [11]): 2.35 µM (inconclusive)
EC50 [12]: 2.38 µM (active)
IC50 [13]: > 80 µM (inactive)
EC50 (BJ [14]): 0.616 µM (active)
AC50 (Paired box protein Pax-8): 4.21 µM (active)

COc1ccc2nc(C)cc(SCC(=O)Nc3c(C)cc(C)cc3C)c2c1
EC50 [15]: 27.8 µM (not active)
EC50 [16]: 55.2 µM (not active)
EC50 [17]: > 79.4 µM (not active)
EC50 [2]: > 100 µM (not active)

O=C(NC(=S)Nc1ccc(NC(=O)c2ccco2)cc1)c1ccccc1
EC50 [1]: > 120 µM (not active)

Cc1nc2ccc(NC(=O)c3cc(S(=O)(=O)N(C)c4ccccc4)ccc3Cl)cc2s1
EC50 (HEK293 [18]): 2.55 µM (active)
IC50 (HEK293 [19]): 5.43 µM (active)
IC50 (Galanin receptor type 2): > 42 µM (not active)
IC50 (HEK293 [20]): > 20 µM (inactive)
EC50 [21]: > 20 µM (inactive)
IC50 (HEK293 [22]): 3.91 µM (inactive)
IC50 (HEK293 [23]): > 20 µM (inactive)
AC50 (INS1): 1.72 µM (active)
AC50 [24]: 2.17 µM (active)

O=C(O)C1CCCCC1C(=O)Nc1ccccc1Nc1ccccc1 (stereo not drawn)
IC50 [4]: > 100 µM (active)

CC(=O)O[C@H]1C(=O)[C@@]2(C)C([C@H](OC(=O)c3ccccc3)[C@]3(O)C[C@H](OC(=O)[C@H](O)[C@@H](NC(=O)c4ccccc4)c4ccccc4)C(C)=C1C3(C)C)[C@]1(OC(C)=O)CO[C@@H]1C[C@H]2O (stereo partly drawn)
EC50 [5]: < 0.1 µM (active)
EC50 [25]: 0.268 µM (active)
EC50 (cells [26]): 0.222 µM (active)
EC50 [8]: < 0.1 µM (active)
EC50 [27]: < 0.1 µM (active)
IC50 [10]: 0.0719 µM (active)
EC50 [28]: 0.279 µM (active)
IC50 [13]: > 80 µM (inactive)
EC50 (cells [29]): < 0.004 µM (active)

Cc1cc(Nc2cccc(Cl)c2)nc(NCc2ccccc2)n1
IC50 (Galanin receptor type 2): > 42 µM (not active)
EC50 [27]: 0.177 µM (active)
EC50 [30]: > 60 µM (inconclusive)
AC50 [31]: 5.51 µM (active)
AC50 (INS1): 3.21 µM (active)
AC50 [32]: 1.64 µM (active)
AC50 [33]: 53 µM (active)
AC50 [34]: 6.41 µM (active)
